For series [1], the system named is patients with advanced solid tumors. Put plainly: QT evaluation study, by time point ECG analysis. It counts as in vivo, human. The following applies: before vs after prophylactic palonosetron 0.25 mg i.v., cycle 1 day 1. Here is the method:
This was a QT evaluation study (EudraCT No. 2015-000206-18; ClinicalTrials.gov: NCT02451007) performed at a subset of sites participating in a multicenter, open-label, exploratory, phase II basket clinical trial (EudraCT No: 2014-003773-42; ClinicaTrials.gov: NCT02454972) conducted in patients with selected advanced solid tumors. The schedule used in this QT evaluation study was that evaluated in the basket trial: lurbinectedin 3.2 mg/m^2 given as a 1-h i.v. infusion q3wk.
A screening ECG was collected between day -10 and day -2 before the first lurbinectedin infusion (day 1 of cycle 1) and transmitted to the central ECG laboratory to confirm the patient’s eligibility.
On day 1 of cycle 1, two baseline triplicate ECGs (three 10-s digital ECGs in close succession) were collected: one before administration of prophylactic medication or pre-dose 1, and the other after antiemetic prophylactic medication (palonosetron 0.25 mg i.v.) and before the start of the lurbinectedin infusion or pre-dose 2 (also on cycle 2).
In cycle 1 and cycle 2, the following triplicate ECGs were collected 5–10 min before their time-matched PK time points: 5 min before end of the lurbinectedin infusion (EOI), 30 min, 1, 3, 24, 72 (only on cycle 1), and 168 h after EOI.
A 12-lead automated digital ECG recorder [Mortara Instrument (Milwaukee, WI, USA) ELI-150 ECG 12-lead digital recorder] was provided by a third-party central ECG laboratory (eResearchTechnology, Inc., Philadelphia, PA, USA). Analysis and reporting of ECG data were performed by a limited number of skilled readers who were blinded to treatment time point. ECG review of a particular patient was performed by a single reader. Interval duration measurements were collected using computer-assisted caliper placements on three consecutive beats. A cardiologist then verified the interval durations and performed the morphology analysis, noting any T-U wave complex compatible with an effect on cardiac repolarization. The ECG analysis was conducted in Lead II or in Lead V5 if Lead II was not analyzable. If Lead V5 was not analyzable, then Lead V2 was used, and followed by the most appropriate lead if necessary. The mean of triplicate ECG measures at each time point for each patient was used for analyses.
Fridericia’s formula [6] is currently considered the most accurate method for correcting the effect of HR on QT interval [7], and was used as the main method for HR correction for QT (QTcF). Nevertheless, graphical inspection of QTcF and QT corrected by Bazett’s formula (QTcB) versus RR interval plots and statistical comparison of resulting squared linear regression slopes (R^2) was performed.
The primary endpoint was the change in QTc corrected by the Fridericia’s formula (ΔQTcF) between each scheduled post-baseline ECG time point and baseline at cycle 1. A patient was considered evaluable for the primary endpoint if he/she had baseline and one or more post-baseline ECG assessments.
Secondary endpoints were the ΔQTcF/lurbinectedin plasma concentration relationship, and change in other ECG parameters (i.e., HR, QRS, and PR).
The primary comparison was ΔQTcF at each ECG time point. A non-inferiority criterion of 20 ms was used to establish the absence of post-baseline QTc prolongation when compared to baseline. An analysis of variance model with mixed effects was fitted, with ΔQTc data as the dependent variable and ECG time point as the fixed effects, and patient as random effect.
Using the estimated least square means (LSM) and intra-patient standard deviation (Std) obtained from this model, a two-sided 90% confidence interval (CI) was calculated for each LSM ΔQTc. Non-inferiority was to be concluded if the upper bound (UB) of the one-sided 95% CI fell below 20 ms at each ECG time point.

The subject of the next series is patients. The following applies: cited from earlier work.

Turning to `O=C1c2cccc3c2[C@H](CCC3)CN1[C@@H]1CN2CCC1CC2` [prophylactic medication, palonosetron, reference compound], in series [1], the “difference between mean pre-dose 1 and mean pre-dose 2 QTcF” value was found to be 1.3 ms. For `COc1cc2c(cc1O)CCN[C@]21CS[C@@H]2c3c(OC(C)=O)c(C)c4c(c3[C@H](COC1=O)N1[C@@H]2[C@H]2c3c(cc(C)c(OC)c3O)C[C@@H]([C@@H]1O)N2C)OCO4` [trabectedin], the heart rate change entry in the series with patients (3-h i.v. infusion, largest increases at 4 h after start of infusion) is given as “heart rate increased slightly”. For the same compound, in the series with patients, the cardiac risk profile result was “low cardiac risk profile”.

Values taken from paper PMC7801313, “Effect of lurbinectedin on the QTc interval in patients with advanced solid tumors: an exposure–response analysis” (Cancer Chemotherapy and Pharmacology, 2020).
